Source: patent US20240279214A1, “ALPHA4 BETA7 INEGRIN ANTAGONISTS AND USES THEREOF” (XinThera, Inc., priority 2022, published 2024)
pEC50: −log10 of the molar value.

Molecular target: T1, a4b7 integrin interaction with MadCAM-1 (Homo sapiens, UniProt P13612+P26010)
T1 construct: capture of a4b7 integrin expressing cells, RPMI8866; endogenous in cells; host or cells: RPMI8866
T1 sequence (P13612 34-1032): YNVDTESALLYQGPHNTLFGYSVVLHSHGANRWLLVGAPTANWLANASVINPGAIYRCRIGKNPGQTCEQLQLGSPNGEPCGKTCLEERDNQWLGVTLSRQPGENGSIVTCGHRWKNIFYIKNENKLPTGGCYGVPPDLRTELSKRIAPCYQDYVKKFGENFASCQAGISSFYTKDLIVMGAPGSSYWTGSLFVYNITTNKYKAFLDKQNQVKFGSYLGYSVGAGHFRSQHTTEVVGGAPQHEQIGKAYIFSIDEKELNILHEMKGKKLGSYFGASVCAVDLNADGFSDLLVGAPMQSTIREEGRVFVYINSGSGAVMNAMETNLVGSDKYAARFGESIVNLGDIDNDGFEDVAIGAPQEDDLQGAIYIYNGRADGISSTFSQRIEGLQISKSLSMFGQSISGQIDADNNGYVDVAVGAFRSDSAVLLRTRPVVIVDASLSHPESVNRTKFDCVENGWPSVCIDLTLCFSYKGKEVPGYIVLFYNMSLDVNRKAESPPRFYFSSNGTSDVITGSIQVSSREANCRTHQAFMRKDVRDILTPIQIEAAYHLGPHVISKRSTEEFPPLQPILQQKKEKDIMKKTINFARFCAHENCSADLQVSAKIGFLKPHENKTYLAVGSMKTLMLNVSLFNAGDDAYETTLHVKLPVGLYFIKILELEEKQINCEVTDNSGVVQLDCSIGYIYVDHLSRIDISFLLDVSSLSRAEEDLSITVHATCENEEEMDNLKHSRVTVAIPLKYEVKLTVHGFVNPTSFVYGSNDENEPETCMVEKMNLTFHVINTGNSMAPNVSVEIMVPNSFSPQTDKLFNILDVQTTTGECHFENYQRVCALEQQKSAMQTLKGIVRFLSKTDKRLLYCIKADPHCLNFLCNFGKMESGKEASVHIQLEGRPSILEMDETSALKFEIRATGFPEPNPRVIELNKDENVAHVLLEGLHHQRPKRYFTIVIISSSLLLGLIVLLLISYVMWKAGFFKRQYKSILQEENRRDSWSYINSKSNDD
T1 sequence (P26010 20-798): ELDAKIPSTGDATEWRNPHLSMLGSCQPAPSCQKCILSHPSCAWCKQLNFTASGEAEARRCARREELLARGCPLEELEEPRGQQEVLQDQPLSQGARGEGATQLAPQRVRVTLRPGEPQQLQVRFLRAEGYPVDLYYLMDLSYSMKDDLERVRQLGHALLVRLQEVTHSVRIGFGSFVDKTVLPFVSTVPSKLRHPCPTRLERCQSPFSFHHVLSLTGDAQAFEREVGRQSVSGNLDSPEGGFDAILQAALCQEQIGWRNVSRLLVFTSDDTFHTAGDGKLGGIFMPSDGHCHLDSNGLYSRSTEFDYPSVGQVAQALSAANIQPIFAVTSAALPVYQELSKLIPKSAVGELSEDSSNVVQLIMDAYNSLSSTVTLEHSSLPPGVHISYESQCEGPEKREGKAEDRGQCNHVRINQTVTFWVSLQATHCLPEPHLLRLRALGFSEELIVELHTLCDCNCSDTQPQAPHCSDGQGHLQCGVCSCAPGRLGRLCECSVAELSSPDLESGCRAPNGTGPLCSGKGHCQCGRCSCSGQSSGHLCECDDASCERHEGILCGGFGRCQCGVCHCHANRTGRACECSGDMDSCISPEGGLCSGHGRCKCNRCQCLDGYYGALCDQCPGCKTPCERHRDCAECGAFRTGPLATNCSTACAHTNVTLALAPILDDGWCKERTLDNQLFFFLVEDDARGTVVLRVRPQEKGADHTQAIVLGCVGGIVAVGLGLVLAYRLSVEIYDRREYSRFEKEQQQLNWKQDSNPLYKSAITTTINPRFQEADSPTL
Test: a4b7 Cell Capture Assay (RPMI8866 cells on MAdCAM-1 Fc coated plates)
Format: cell-based
Conditions: 50% human serum, 1 mM MgCl2, 1 hour incubation, CellTiter-Glo luminescence, read-out: a4B7 cell capture assay RMPI8866-MadCAM EC50
Method in brief: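 RPMI8866 cells (1.0×10^6 cells/mL) in 1 mM MgCl2, 25 mM HEPES, 50% human serum were added to plates coated with human MAdCAM-1–IgG1 Fc (1.0 μg/mL) and exposed to compound (9-point, 0.08–1000 nM, 0.1% DMSO) for 1 h at 37 °C. Bound cells were read by CellTiter-Glo luminescence. IC50 came from 4-parameter fit of normalized % inhibition.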

pEC50	SMILES
6.44	Cc1cc(C2CC2)cc2c1-c1cc(c(F)c(C(F)(F)F)c1)[C@H](CC(=O)O)NC(=O)[C@@H](n1cc(CCN3CC(F)C3)c(C(F)(F)F)cc1=O)c1cccc(c1)O2 (relative stereo) [Example 10, [(14R*,17S)-5-cyclopropyl-19-fluoro-14-{5-[2-(3-fluoroazetidin-1-yl)ethyl]-2-oxo-4-(trifluoromethyl)pyridin-1-yl}-3-methyl-15-oxo-20-(trifluoromethyl)-8-oxa-16-azatetracyclo[16.3.1.1^{9,13}.0^{2,7}]tricosa-1(21),2(7),3,5,9,11,13(23),18(22),19-nonaen-17-yl]acetic acid]
8.04	Cc1cc(C)c2c(c1)Oc1cccc(c1)[C@H](n1cc(CCCN(C)C)c(C(F)(F)F)cc1=O)C(=O)N[C@@H](CC(=O)O)c1cn-2nc1C(F)(F)F (relative stereo) [Example 18, [(13S,16R*)-16-{5-[3-(dimethylamino)propyl]-2-oxo-4-(trifluoromethyl)pyridin-1-yl}-5,7-dimethyl-15-oxo-11-(trifluoromethyl)-2-oxa-9,10,14-triazatetracyclo[15.3.1.1^{9,12}.0^{3,8}]docosa-1(20),3(8),4,6,10,12(22),17(21),18-octaen-13-yl]acetic acid]
7.55	Cc1cccc2c1-c1cc(c(F)c(C(F)(F)F)c1)[C@H](CC(=O)O)NC(=O)[C@@H](n1cc(CCN3CC(F)C3)c(C(F)(F)F)cc1=O)c1cc(Cl)cc(c1)O2 (relative stereo) [Example 15, [(14R*,17S)-11-chloro-19-fluoro-14-{5-[2-(3-fluoroazetidin-1-yl)ethyl]-2-oxo-4-(trifluoromethyl)pyridin-1-yl}-3-methyl-15-oxo-20-(trifluoromethyl)-8-oxa-16-azatetracyclo[16.3.1.1^{9,13}.0^{2,7}]tricosa-1(22),2(7),3,5,9,11,13(23),18,20-nonaen-17-yl]acetic acid]
6.47	Cc1cc(Cl)cc2c1-c1cc(c(F)c(C(F)(F)F)c1)[C@H](CC(=O)O)NC(=O)[C@@H](n1cc(CCN3CC(F)C3)c(C(F)(F)F)cc1=O)c1cccc(c1)O2 (single isomer, unassigned) [Example 11]
8.96	Cc1cc2cc(c1F)[C@H](CC(=O)O)NC(=O)[C@@H](n1cc(CCN3CC(F)C3)c(C(F)(F)F)cc1=O)c1cc(ccc1F)Oc1cccc(C)c1-2 (relative stereo) [Example 7, [(14R*,17S)-12,19-difluoro-14-{5-[2-(3-fluoroazetidin-1-yl)ethyl]-2-oxo-4-(trifluoromethyl)pyridin-1-yl}-3,20-dimethyl-15-oxo-8-oxa-16-azatetracyclo[16.3.1.1^{9,13}.0^{2,7}]tricosa-1(21),2(7),3,5,9(23),10,12,18(22),19-nonaen-17-yl]acetic acid]
7.92	Cc1cc2cc(c1F)[C@H](CC(=O)O)NC(=O)[C@@H](n1cc(CCN3CC(F)C3)c(C(F)(F)F)cc1=O)c1cc(Cl)cc(c1)Oc1cccc(C)c1-2 (single isomer, unassigned) [Example 3]
7.23	Cc1cc2cc(c1F)[C@H](CC(=O)O)NC(=O)[C@@H](n1cc(CCN3CC(F)C3)c(C(F)(F)F)cc1=O)c1cccc(c1)Oc1cccc(C)c1-2 (relative stereo) [Example 1, rel-2-((5S,8S)-1^4-fluoro-5-(5-(2-(3-fluoroazetidin-1-yl)ethyl)-2-oxo-4-(trifluoromethyl)pyridin-1(2H)-yl)-1^5,2^6-dimethyl-6-oxo-3-oxa-7-aza-1,4(1,3),2(1,2)-tribenzenacyclooctaphane-8-yl)acetic acid]
